Assay results taken from US11970493B2, “Autotaxin inhibitor compounds” (ILDONG PHARMACEUTICAL CO., LTD., priority 2020, dated 2024).

Experiments:
[1] = tested on: LPA 18:2 level in mouse plasma; experiment: In vitro LPA assay, reduction of LPA 18:2 level in mouse plasma (LC-MS/MS); format: biochemical; settings: 2 hr at 37° C., LPA 18:2 reduction
Protocol: (§1) Autotaxin (ATX) plays an important role in lysophosphatidic acid (LPA) signaling. An in vitro LPA assay was conducted to determine IC50 values of the test compounds on reduction of LPA 18:2 level in rat or mouse plasma. This example describes the assay data (IC50 value ranges) of exemplary compounds from LPA assays using mouse and rat plasma. Compound GPLG-1690 was assayed as a reference compound.
(§2) The 10 mM DMSO stock solutions of test compounds and 4-fold serial dilutions of the test compounds were prepared at various concentrations. The diluted solutions of the compounds were diluted with 1×PBS (pH 7.5) buffer. 38 μL of rat or mouse plasma samples were mixed with 2 μL of the diluted solutions of the compounds or 2% DMSO solutions in 96-well plate (final 0.1% DMSO). After incubating for 2 hr at 37° C., 120 μL MeOH containing IS (250 ng/mL of LPA 17:0) was added to each well. Mixture was vortexed for 1 min, and then centrifuged for 30 min (4000 rpm, 4° C.). 100 μL supernatant was transferred to a 96-well plate containing 100 μL pure water and the plate was shaken for 10 min. 5 μL supernatant was injected into LC-MS/MS system. No calibration curve will be prepared for LPA 18:2 and all quantifications were performed based on peak area ratios (LPA 18:2/LPA 17:0). For each concentration of compound LPA data were expressed as percentage of reduction (% reduction) using the formula. 100−[((LPA ratio-LPA ratio in control sample after 0 hr incubation)/(LPA ratio in control sample after 2 hr incubation—LPA ratio in control sample after 0 hr incubation))*100]. Data

hATX/ENPP2 = hATX/ENPP2 (Homo sapiens, UniProt Q13822); experiment: hATX/ENPP2 biochemical assay using 16:0-LPC as substrate (Amplex Red/choline oxidase/HRP fluorescence); settings: hENPP2 2.5 nM, LPC (16:0) substrate
Procedure, shortened: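 Enzyme preincubated with compounds 15 min at room temperature in 50 mM Tris-HCl pH 8.0, 140 mM NaCl, 5 mM CaCl2, 0.01% Triton X-100. Reaction started with 80 μM LPC (16:0) stock plus Amplex Red/choline oxidase/HRP mix; fluorescence (ex 530/em 590 nm) read kinetically. IC50 from slope between 60 and 70 min.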

[2] = tested on: LPA 18:2 level in rat plasma; experiment: In vitro LPA assay, reduction of LPA 18:2 level in rat plasma (LC-MS/MS); format: biochemical; settings: 2 hr at 37° C., LPA 18:2 reduction
Protocol: as §1, §2

[3] = Mouse PK study (IV and PO); format: in vivo; settings: male, C57BL/6, mouse, plasma, male C57BL/6 mice; for AUC(0-inf): IV 2 mg/kg and PO 10 mg/kg study; for bioavailability / Cmax: po, 10 mg/kg; for bioavailability: IV 2 mg/kg and PO 10 mg/kg, read-out: F % (bioavailability); for Cmax: PO group 10 mg/kg
Protocol: This example describes the pharmacokinetic (PK) data obtained for various compounds of the present disclosure, from studies using mice. The following PK parameters were calculated: • Bioavailability (F %) were calculated using the linear/log trapezoidal rule • Peak plasma concentrations (Cmax (ng/mL)) were taken directly from the plasma concentration vs. time profiles for the PO group • Area under the curve e.g., the area under the concentration curve from time 0 to infinity (AUC0-inf(ng*h/mL)). Experimental Procedures
After intravenous (IV) and oral (PO) administration at 2 mg/kg and 10 mg/kg to male C57BL/6 mice, respectively, the blood samples were collected at the designed sampling time points. All blood samples were transferred into pre-chilled commercial polyethylene microcentrifuge tubes containing K2-EDTA as an anticoagulant. Samples were processed for plasma by centrifugation. Plasma samples was transferred into polypropylene tubes pre-chilled on dry ice and then quickly frozen over dry ice and kept at −70±10° C. until LC-MS/MS analysis. Mice plasma samples were analyzed using qualified bioanalytical methods based on protein precipitation followed by LC-MS/MS analysis. Individual plasma concentration data of each compound was subjected to noncompartmental pharmacokinetic analysis using Phoenix WinNonlin™. Nominal doses were used for pharmacokinetic parameters calculation.

| Compound | IC50 [1] [nM] | IC50 (hATX/ENPP2) [nM] | IC50 [2] [nM] | AUC(0-inf) [3] [ng·h/mL] | bioavailability [3] [%] | Cmax [3] [ng/mL] |
| --- | --- | --- | --- | --- | --- | --- |
| CCc1nc2ccc(-c3ccc(N4CCC(C(=O)N5CCCC5)CC4)nc3)cn2c1N(C)c1nc(-c2ccc(F)cc2)c(C#N)s1 [Compound 113, 2-((2-ethyl-6-(6-(4-(pyrrolidine-1-carbonyl)piperidin-1-yl)pyridin-3-yl)imidazo[1,2-a]pyridin-3-yl)(methyl)amino)-4-(4-fluorophenyl)thiazole-5-carbonitrile] | > 800 | ≤ 20 | ≤ 200 | 40500 | 44.7 | 6530 |
| CCc1nc2ccc(-c3ccc(N4CCC(C(=O)N5CCOCC5)CC4)nc3)cn2c1N(C)c1nc(-c2ccc(F)cc2)c(C#N)s1 [Compound 126, 2-((2-ethyl-6-(6-(4-(morpholine-4-carbonyl)piperidin-1-yl)pyridin-3-yl)imidazo[1,2-a]pyridin-3-yl)(methyl)amino)-4-(4-fluorophenyl)thiazole-5-carbonitrile] | 200 to 800 | ≤ 20 | ≤ 200 | 38300 | 59.2 | 5580 |
| CCc1nc2ccc(-c3ccc(N4CCC(C(=O)N5CCC(O)CC5)CC4)nc3)cn2c1N(C)c1nc(-c2ccc(F)cc2)c(C#N)s1 [Compound 119, 2-((2-ethyl-6-(6-(4-(4-hydroxypiperidine-1-carbonyl)piperidin-1-yl)pyridin-3-yl)imidazo[1,2-a]pyridin-3-yl)(methyl)amino)-4-(4-fluorophenyl)thiazole-5-carbonitrile] | 200 to 800 | ≤ 20 | 200 to 800 | 57100 | 33.1 | 7680 |
| CCc1nc2ccc(-c3ccc(N4CCC(C(=O)N5CC(O)C5)CC4)nc3)cn2c1N(C)c1nc(-c2ccc(F)cc2)c(C#N)s1 [Compound 120, 2-((2-ethyl-6-(6-(4-(3-hydroxyazetidine-1-carbonyl)piperidin-1-yl)pyridin-3-yl)imidazo[1,2-a]pyridin-3-yl)(methyl)amino)-4-(4-fluorophenyl) thiazole-5-carbonitrile] | 200 to 800 | ≤ 20 | 200 to 800 | 50500 | 40.8 | 8470 |
| CCc1nc2ccc(-c3cnc(N4CC(NC5(CO)CC5)C4)nc3)cn2c1N(C)c1nc(-c2ccc(F)cc2)c(C#N)s1 [Compound 30, 2-((2-ethyl-6-(2-(3-((1-(hydroxymethyl)cyclopropyl)amino)azetidin-1-yl)pyrimidin-5-yl)imidazo[1,2-a]pyridin-3-yl)(methyl)amino)-4-(4-fluorophenyl)thiazole-5-carbonitrile] | 200 to 800 | 20 to 200 | 200 to 800 | 21700 | 42 | 4310 |
| CCc1nc2ccc(-c3ccc(N4CC(C(=O)N5CCC5)C4)nc3)cn2c1N(C)c1nc(-c2ccc(F)cc2)c(C#N)s1 [Compound 124, 2-((6-(6-(3-(azetidine-1-carbonyl)azetidin-1-yl)pyridin-3-yl)-2-ethylimidazo[1,2-a]pyridin-3-yl)(methyl)amino)-4-(4-fluorophenyl)thiazole-5-carbonitrile] | 200 to 800 | 20 to 200 | 200 to 800 | 13100 | 40 | 3820 |

More lines, now with the values ahead:

| IC50 [1] [nM] | IC50 (hATX/ENPP2) [nM] | IC50 [2] [nM] | AUC(0-inf) [3] [ng·h/mL] | bioavailability [3] [%] | Cmax [3] [ng/mL] | Compound |
| --- | --- | --- | --- | --- | --- | --- |
| 200 to 800 | ≤ 20 | 200 to 800 | 25000 | 33.4 | 4730 | CCc1nc2ccc(-c3cnc(N4CCN(C(=O)N5CC[C@H](O)C5)CC4)nc3)cn2c1N(C)c1nc(-c2ccc(F)cc2)c(C#N)s1 [Compound 44, (S)-2-((2-ethyl-6-(2-(4-(3-hydroxypyrrolidine-1-carbonyl)piperazin-1-yl)pyrimidin-5-yl)imidazo[1,2-a]pyridin-3-yl)(methyl)amino)-4-(4-fluorophenvl)thiazole-5-carbonitrile] |
| ≤ 200 | ≤ 20 | ≤ 200 | 31000 | 39.5 | 5170 | CCc1nc2ccc(-c3cnc(N4CCN(C(=O)N5CC[C@@H](O)C5)CC4)nc3)cn2c1N(C)c1nc(-c2ccc(F)cc2)c(C#N)s1 [Compound 43, (R)-2-((2-ethyl-6-(2-(4-(3-hydroxypyrrolidine-1-carbonyl)piperazin-1-yl)pyrimidin-5-yl)imidazo[1,2-a]pyridin-3-yl)(methyl)amino)-4-(4-fluorophenyl)thiazole-5-carbonitrile] |
| 200 to 800 | ≤ 20 | ≤ 200 | 37100 | 48.5 |  | CCc1nc2ccc(-c3cnc(N4CCC(C(=O)N5CCCC5)CC4)nc3)cn2c1N(C)c1nc(-c2ccc(F)cc2)c(C#N)s1 [Compound 115, 2-((2-ethyl-6-(2-(4-(pyrrolidine-1-carbonyl)piperidin-1-yl)pyrimidin-5-yl)imidazo [1,2-a]pyridin-3-yl)(methyl)amino)-4-(4-fluorophenyl)thiazole-5-carbonitrile] |
| ≤ 200 | ≤ 20 | 200 to 800 | 22800 | 25 | 4260 | CCc1nc2ccc(-c3ccc(N4CCN(C(=O)N5CC[C@@H](O)C5)CC4)nc3)cn2c1N(C)c1nc(-c2ccc(F)cc2)c(C#N)s1 [Compound 92, (R)-2-((2-ethyl-6-(6-(4-(3-hydroxypyrrolidine-1-carbonyl)piperazin-1-yl)pyridin-3-yl)imidazo[1,2-a]pyridin-3-yl)(methyl)amino)-4-(4-fluorophenyl)thiazole-5-carbonitrile] |
| 200 to 800 | ≤ 20 | 200 to 800 | 61000 | 55.7 | 7750 | CCc1nc2ccc(-c3cnc(N4CCC(C(=O)N5CCC5)CC4)nc3)cn2c1N(C)c1nc(-c2ccc(F)cc2)c(C#N)s1 [Compound 123, 2-((6-(2-(4-(azetidine-1-carbonyl)piperidin-1-yl)pyrimidin-5-yl)-2-ethylimidazo[1,2-a]pyridin-3-yl)(methyl)amino)-4-(4-fluorophenyl)thiazole-5-carbonitrile] |
